Measurements reported in ChEMBL document CHEMBL1909046, “DrugMatrix in vitro pharmacology data”.

Key:
Cytochrome P450 2A6 = biological target: T1, Cytochrome P450 2A6 (Homo sapiens, UniProt P11509); settings: bti-tn-5b1-4; also: in other assays of this panel Not Active means under 50% inhibition at 10 µM
T1 sequence (P11509 whole entry): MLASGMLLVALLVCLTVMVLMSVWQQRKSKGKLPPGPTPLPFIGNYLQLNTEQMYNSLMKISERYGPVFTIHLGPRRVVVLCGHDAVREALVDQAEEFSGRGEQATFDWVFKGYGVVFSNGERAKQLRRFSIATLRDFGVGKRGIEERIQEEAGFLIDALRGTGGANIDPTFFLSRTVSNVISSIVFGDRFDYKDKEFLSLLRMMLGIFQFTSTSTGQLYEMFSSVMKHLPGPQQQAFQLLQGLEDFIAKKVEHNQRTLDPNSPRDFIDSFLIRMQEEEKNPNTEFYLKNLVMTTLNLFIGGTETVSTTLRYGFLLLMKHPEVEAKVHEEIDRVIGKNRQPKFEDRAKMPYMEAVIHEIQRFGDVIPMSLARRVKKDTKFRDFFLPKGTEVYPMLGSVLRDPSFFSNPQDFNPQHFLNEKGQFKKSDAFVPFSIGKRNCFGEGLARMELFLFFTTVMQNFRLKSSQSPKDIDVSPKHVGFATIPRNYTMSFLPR

[1] = DRUGMATRIX: Serotonin (5-Hydroxytryptamine) 5-HT3 radioligand binding (ligand: [3H] GR-65630); assay type: cell membranes, Membrane; settings: hek293; Not Active = under 50% inhibition at 10 µM
[2] = DRUGMATRIX: Calcium Channel Type L, Benzothiazepine radioligand binding (ligand: [3H] Diltiazem); assay type: cell membranes, Rattus norvegicus, Wistar, Brain, Membrane; settings: Not Active = under 50% inhibition at 10 µM
[3] = DRUGMATRIX: beta-Lactamase enzyme inhibition (substrate: Nitrocefin); design: species or system Bacillus cereus; settings: Not Active = under 50% inhibition at 10 µM
[4] = biological target: Aldo-keto reductase family 1 member B1 (Rattus norvegicus, UniProt P07943); test: biochemical; assay type: tissue-based, Lens of camera-type eye;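 also: inhibition of aldose reductase enzyme activity, measured with DL-glyceraldehyde as the substrate; in other assays of this panel Not Active means under 50% inhibition at 10 µM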
[5] = biological target: T2, Angiotensin-converting enzyme (Oryctolagus cuniculus, UniProt P12822); assay type: tissue-based, Lung;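 also: enzymatic inhibition of angiotensin-converting enzyme measured with FAPGG as the substrate; in other assays of this panel Not Active means under 50% inhibition at 10 µM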
T2 sequence (P12822 whole entry): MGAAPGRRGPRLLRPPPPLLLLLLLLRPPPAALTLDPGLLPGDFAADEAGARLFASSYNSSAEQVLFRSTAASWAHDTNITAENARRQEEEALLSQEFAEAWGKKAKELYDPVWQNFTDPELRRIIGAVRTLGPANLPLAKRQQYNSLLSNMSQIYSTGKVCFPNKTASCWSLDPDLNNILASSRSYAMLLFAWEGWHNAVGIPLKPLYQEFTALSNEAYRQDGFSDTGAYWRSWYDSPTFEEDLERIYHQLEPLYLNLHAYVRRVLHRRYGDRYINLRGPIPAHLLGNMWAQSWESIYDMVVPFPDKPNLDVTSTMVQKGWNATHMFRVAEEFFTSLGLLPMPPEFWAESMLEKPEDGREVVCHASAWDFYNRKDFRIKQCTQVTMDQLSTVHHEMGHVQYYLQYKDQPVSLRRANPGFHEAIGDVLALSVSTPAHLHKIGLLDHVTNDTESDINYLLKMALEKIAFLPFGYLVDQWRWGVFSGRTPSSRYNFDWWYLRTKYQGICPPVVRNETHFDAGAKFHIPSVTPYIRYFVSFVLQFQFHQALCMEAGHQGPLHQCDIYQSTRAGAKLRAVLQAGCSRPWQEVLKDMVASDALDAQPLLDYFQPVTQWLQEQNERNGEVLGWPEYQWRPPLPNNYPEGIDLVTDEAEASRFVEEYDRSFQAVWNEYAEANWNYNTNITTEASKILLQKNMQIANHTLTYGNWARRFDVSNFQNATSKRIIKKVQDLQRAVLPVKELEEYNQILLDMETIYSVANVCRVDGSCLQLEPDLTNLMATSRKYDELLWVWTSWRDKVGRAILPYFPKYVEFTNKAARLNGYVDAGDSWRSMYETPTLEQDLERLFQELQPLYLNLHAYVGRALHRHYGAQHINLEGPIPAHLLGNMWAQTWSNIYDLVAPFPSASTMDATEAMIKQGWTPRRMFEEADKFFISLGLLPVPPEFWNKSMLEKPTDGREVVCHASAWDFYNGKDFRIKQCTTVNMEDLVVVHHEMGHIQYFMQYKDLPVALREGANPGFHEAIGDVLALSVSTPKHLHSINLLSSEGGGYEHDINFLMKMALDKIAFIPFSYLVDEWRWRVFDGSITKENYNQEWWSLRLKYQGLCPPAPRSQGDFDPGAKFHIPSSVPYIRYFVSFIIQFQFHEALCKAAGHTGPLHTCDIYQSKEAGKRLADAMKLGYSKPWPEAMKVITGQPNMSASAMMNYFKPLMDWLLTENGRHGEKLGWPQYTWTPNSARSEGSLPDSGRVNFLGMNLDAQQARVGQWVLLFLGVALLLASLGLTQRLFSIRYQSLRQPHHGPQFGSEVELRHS

Melanocortin receptor 3 = Melanocortin receptor 3 (Homo sapiens, UniProt P41968); assay type: cell membranes, Membrane; settings: hek293; also: in other assays of this panel Not Active means under 50% inhibition at 10 µM
Melanocortin receptor 3, sequence (P41968 whole entry): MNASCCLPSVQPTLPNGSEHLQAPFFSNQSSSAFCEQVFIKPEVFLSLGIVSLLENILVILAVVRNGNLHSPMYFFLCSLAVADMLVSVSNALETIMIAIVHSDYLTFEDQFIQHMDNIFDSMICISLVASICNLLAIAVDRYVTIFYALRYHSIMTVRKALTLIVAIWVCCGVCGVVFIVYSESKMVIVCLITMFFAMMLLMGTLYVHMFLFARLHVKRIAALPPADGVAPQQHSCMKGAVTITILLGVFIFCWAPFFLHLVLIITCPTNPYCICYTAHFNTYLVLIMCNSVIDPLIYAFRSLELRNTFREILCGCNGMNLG

Cathepsin G = biological target: T3, Cathepsin G (Homo sapiens, UniProt P08311); assay type: tissue-based; settings: neutrophil
T3 sequence (P08311 whole entry): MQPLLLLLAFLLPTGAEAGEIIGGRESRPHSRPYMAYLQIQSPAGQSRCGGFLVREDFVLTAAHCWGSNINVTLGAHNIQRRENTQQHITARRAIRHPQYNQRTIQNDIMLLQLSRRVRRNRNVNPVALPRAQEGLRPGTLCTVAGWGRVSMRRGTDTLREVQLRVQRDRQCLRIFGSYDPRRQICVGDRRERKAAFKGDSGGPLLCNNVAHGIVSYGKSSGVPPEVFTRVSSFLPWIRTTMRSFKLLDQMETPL

SMILES | IC50 (Cytochrome P450 2A6) | Ki (Cytochrome P450 2A6) | IC50 [1] | Ki [1] | IC50 [2] | Ki [2] | IC50 [3] | Ki [3] | IC50 [4] | IC50 [5] | IC50 (Melanocortin receptor 3) | IC50 (Cathepsin G) | IC50 ([4]; read-out: IC50) | Ki (Cathepsin G)
COc1cc(N)nc2[nH]c(-c3ccc(F)cc3)c(-c3ccncc3)c12 | Not Active | Not Active | Not Active | Not Active | Not Active | Not Active | Not Active | Not Active | Not Active | Not Active | Not Active | Not Active |  | 
CNS(=O)(=O)Cc1ccc2[nH]cc(CCN(C)C)c2c1 | Not Active | Not Active | Not Active | Not Active | Not Active | Not Active | Not Active | Not Active | Not Active | Not Active | Not Active | Not Active |  | 
CCCc1nn(C)c2c(=O)[nH]c(-c3cc(S(=O)(=O)N4CCN(C)CC4)ccc3OCC)nc12 | Not Active | Not Active | Not Active | Not Active | Not Active | Not Active | Not Active | Not Active | Not Active | Not Active | Not Active | Not Active |  | 
COc1ccc(/C=C/C(=O)Nc2ccccc2C(=O)O)cc1OC | Not Active | Not Active | Not Active | Not Active | Not Active | Not Active | Not Active | Not Active | Not Active | Not Active | Not Active | Not Active |  | 
CCOC(N)=O | Not Active | Not Active | Not Active | Not Active | Not Active | Not Active | Not Active | Not Active | Not Active | Not Active | Not Active | Not Active |  | 
CC(=O)Nc1nnc(S(N)(=O)=O)s1 [ACETAZOLAMIDE] | Not Active | Not Active |  |  |  |  |  |  | Not Active | Not Active | Not Active | Not Active |  | 
O=c1[nH]c2ccccc2n1CCCN1CCC(n2c(=O)[nH]c3cc(Cl)ccc32)CC1 [DOMPERIDONE] |  |  |  |  |  |  |  |  | Not Active | Not Active | Not Active | Not Active |  | 
CC1=C(CC(=O)O)c2cc(F)ccc2/C1=C\c1ccc(S(C)(=O)=O)cc1 [EXISULIND] | Not Active | Not Active | Not Active | Not Active | Not Active | Not Active | Not Active | Not Active |  | Not Active | Not Active | Not Active | 269 nM | 
CC(C)OC(=O)C(C)(C)Oc1ccc(C(=O)c2ccc(Cl)cc2)cc1 [FENOFIBRATE] | Not Active | Not Active |  |  |  |  |  |  | Not Active | Not Active | Not Active |  |  | Not Active
OCCN1CCN(CCCN2c3ccccc3Sc3ccc(C(F)(F)F)cc32)CC1 [FLUPHENAZINE] | Not Active | Not Active |  |  |  |  |  |  | Not Active | Not Active | Not Active | Not Active |  | 
CN1C2CCCC1CC(NC(=O)c1nn(C)c3ccccc13)C2 (stereo unspecified) [GRANISETRON] | Not Active | Not Active |  |  |  |  |  |  | Not Active | Not Active | Not Active | Not Active |  | 
Nc1nc2c(c(=O)[nH]1)N(C=O)C(CNc1ccc(C(=O)N[C@@H](CCC(=O)O)C(=O)O)cc1)CN2 (stereo partly specified) [LEUCOVORIN] | Not Active | Not Active | Not Active | Not Active | Not Active | Not Active | Not Active | Not Active | Not Active | Not Active | Not Active | Not Active |  | 
C[C@@H](O)[C@H]1C(=O)N2C(C(=O)O)=C(S[C@@H]3CN[C@H](C(=O)N(C)C)C3)[C@H](C)[C@H]12 [MEROPENEM] | Not Active | Not Active | Not Active | Not Active | Not Active | Not Active | Not Active | Not Active | Not Active | Not Active | Not Active | Not Active |  | 
CC[C@@H](CO)NC(=O)[C@@H]1C=C2c3cccc4c3c(cn4C)C[C@H]2N(C)C1 [METHYSERGIDE] | Not Active | Not Active |  |  |  |  |  |  | Not Active | Not Active | Not Active | Not Active |  | 
CCN(CC)CC#CCOC(=O)C(O)(c1ccccc1)C1CCCCC1 (stereo unspecified) [OXYBUTYNIN] | Not Active | Not Active |  |  |  |  |  |  | Not Active | Not Active | Not Active | Not Active |  | 
O=P(O)(O)C(O)(Cc1cccnc1)P(=O)(O)O [RISEDRONIC ACID] | Not Active | Not Active | Not Active | Not Active | Not Active | Not Active | Not Active | Not Active | Not Active | Not Active | Not Active | Not Active |  | 
CN(CCOc1ccc(CC2SC(=O)NC2=O)cc1)c1ccccn1 (stereo unspecified) [ROSIGLITAZONE] | Not Active | Not Active | Not Active | Not Active | Not Active | Not Active | Not Active | Not Active | Not Active | Not Active | Not Active | Not Active |  | 
CCS(=O)(=O)CCn1c([N+](=O)[O-])cnc1C [TINIDAZOLE] |  |  | Not Active | Not Active | Not Active | Not Active | Not Active | Not Active | Not Active | Not Active | Not Active | Not Active |  | 
O=c1n(CCCN2CCN(c3cccc(Cl)c3)CC2)nc2ccccn12 [TRAZODONE] | Not Active | Not Active |  |  |  |  |  |  | Not Active | Not Active | Not Active | Not Active |  | 
COc1ccc(CN2CCNCC2)c(OC)c1OC [TRIMETAZIDINE] |  |  | Not Active | Not Active | Not Active | Not Active | Not Active | Not Active | Not Active | Not Active | Not Active | Not Active |  | 
